Test results published in ChEMBL document CHEMBL5463725, “Data for DCP probe BAY-277” (2023).

Experiments:
[1] = target: Sodium-dependent serotonin transporter (Homo sapiens) (UniProt P31645); experiment: Inhibition of Transporter, Serotonin (5-Hydroxytryptamine) (SERT) at 10.0 µM in the Eurofins Panlabs Safety Screen; settings: Compound concentration 10.0 uM
[2] = target: B1 bradykinin receptor (Homo sapiens) (UniProt P46663); experiment: Inhibition of Bradykinin B1 at 10.0 µM in the Eurofins Panlabs Safety Screen; settings: Compound concentration 10.0 uM
[3] = target: Purinergic P2Y (Rattus norvegicus) (UniProt O35811+Q9EPX4+P49651+Q63371+P41232+O35881+Q6GUG4); experiment: Inhibition of Purinergic P2Y, non-selective at 10.0 µM in the Eurofins Panlabs Safety Screen; format: protein assay; settings: Compound concentration 10.0 uM
[4] = target: Type-1 angiotensin II receptor (Homo sapiens) (UniProt P30556); experiment: Inhibition of Angiotensin AT1 at 10.0 µM in the Eurofins Panlabs Safety Screen; settings: Compound concentration 10.0 uM
[5] = target: Progesterone receptor (Homo sapiens) (UniProt P06401); experiment: Inhibition of Progesterone PR-B at 10.0 µM in the Eurofins Panlabs Safety Screen; settings: Compound concentration 10.0 uM
[6] = target: Nitric oxide synthase, inducible (Homo sapiens) (UniProt P35228); experiment: Inhibition of Nitric Oxide Synthetase, Inducible (iNOS) at 10.0 µM in the Eurofins Panlabs Safety Screen; settings: Mus musculus; Compound concentration 10.0 uM
[7] = target: T1, Sodium-dependent dopamine transporter (Homo sapiens, UniProt Q01959); experiment: Inhibition of Transporter, Dopamine (DAT) at 10.0 µM in the Eurofins Panlabs Safety Screen; settings: Compound concentration 10.0 uM
T1 sequence (Q01959 whole entry): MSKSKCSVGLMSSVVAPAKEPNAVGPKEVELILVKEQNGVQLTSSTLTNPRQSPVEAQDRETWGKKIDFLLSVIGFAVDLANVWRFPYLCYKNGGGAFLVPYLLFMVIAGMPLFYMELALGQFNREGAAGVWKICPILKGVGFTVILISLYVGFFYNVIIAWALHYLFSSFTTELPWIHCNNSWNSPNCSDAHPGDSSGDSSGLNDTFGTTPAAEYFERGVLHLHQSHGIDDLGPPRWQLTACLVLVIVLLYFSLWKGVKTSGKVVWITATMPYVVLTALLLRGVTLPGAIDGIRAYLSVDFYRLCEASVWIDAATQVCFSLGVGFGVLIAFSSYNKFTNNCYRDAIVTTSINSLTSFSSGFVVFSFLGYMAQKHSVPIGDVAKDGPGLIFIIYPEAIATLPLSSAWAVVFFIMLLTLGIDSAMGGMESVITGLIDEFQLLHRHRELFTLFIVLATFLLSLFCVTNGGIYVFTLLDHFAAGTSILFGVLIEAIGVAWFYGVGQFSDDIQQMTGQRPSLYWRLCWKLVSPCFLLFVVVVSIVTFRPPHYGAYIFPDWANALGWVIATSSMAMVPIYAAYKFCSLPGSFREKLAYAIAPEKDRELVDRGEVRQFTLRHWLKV

[8] = target: Histamine H1 receptor (Homo sapiens) (UniProt P35367); experiment: Inhibition of Histamine H1 at 10.0 µM in the Eurofins Panlabs Safety Screen; settings: Compound concentration 10.0 uM
Sequence of Histamine H1 receptor (Homo sapiens) (P35367 whole entry): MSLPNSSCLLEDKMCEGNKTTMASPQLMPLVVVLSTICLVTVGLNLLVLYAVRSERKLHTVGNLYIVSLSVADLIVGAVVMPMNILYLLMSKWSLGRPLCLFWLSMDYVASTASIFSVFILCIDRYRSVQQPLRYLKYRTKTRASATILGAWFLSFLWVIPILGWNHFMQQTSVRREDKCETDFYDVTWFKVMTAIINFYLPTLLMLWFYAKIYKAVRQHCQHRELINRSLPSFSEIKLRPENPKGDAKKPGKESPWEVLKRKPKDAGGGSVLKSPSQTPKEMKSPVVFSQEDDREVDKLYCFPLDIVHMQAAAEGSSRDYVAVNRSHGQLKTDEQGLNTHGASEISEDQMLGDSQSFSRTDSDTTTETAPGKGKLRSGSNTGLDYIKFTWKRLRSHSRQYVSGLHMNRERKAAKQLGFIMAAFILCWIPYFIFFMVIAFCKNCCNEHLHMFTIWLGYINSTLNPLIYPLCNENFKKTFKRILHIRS

[9] = target: Muscarinic acetylcholine receptor M3 (Homo sapiens, UniProt P20309); experiment: Inhibition of Muscarinic M3 at 10.0 µM in the Eurofins Panlabs Safety Screen; settings: Compound concentration 10.0 uM
Sequence of Muscarinic acetylcholine receptor M3 (P20309 whole entry, looked up): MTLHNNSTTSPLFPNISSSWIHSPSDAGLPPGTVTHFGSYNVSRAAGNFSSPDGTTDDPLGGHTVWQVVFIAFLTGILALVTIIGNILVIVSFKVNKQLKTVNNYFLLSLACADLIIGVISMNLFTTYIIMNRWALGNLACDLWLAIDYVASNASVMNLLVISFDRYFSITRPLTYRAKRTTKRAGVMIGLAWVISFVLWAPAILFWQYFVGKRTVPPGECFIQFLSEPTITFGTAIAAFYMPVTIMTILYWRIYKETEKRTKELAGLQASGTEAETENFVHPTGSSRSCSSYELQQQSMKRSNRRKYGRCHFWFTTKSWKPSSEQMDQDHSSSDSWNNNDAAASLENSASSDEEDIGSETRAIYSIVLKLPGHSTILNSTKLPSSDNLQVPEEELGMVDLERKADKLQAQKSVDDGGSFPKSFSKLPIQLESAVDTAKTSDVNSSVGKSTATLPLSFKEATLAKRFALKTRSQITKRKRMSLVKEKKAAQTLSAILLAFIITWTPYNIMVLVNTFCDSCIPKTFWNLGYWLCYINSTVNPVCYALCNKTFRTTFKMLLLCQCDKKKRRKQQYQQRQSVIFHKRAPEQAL

[10] = target: Cannabinoid receptor 2 (Homo sapiens) (UniProt P34972); experiment: Inhibition of Cannabinoid CB2 at 10.0 µM in the Eurofins Panlabs Safety Screen; settings: Compound concentration 10.0 uM
[11] = target: T2, Alpha-2C adrenergic receptor (Homo sapiens) (UniProt P18825); experiment: Inhibition of Adrenergic alpha2C at 10.0 µM in the Eurofins Panlabs Safety Screen; settings: Compound concentration 10.0 uM
T2 sequence (whole entry): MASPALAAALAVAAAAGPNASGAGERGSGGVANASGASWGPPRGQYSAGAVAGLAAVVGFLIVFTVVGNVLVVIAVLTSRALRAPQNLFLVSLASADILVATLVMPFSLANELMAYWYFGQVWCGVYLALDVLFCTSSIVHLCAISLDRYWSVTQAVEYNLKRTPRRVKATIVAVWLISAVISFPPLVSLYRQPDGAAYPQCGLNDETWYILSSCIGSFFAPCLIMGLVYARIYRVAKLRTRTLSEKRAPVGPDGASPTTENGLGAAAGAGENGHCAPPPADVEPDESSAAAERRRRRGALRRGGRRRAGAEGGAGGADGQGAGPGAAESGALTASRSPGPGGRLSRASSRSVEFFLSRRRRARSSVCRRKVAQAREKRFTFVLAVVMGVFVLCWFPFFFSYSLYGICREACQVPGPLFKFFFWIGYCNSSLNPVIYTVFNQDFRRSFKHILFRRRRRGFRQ

[12] = target: Histamine H1 receptor (Homo sapiens) (UniProt P35367); settings: Compound concentration 10.0 uM
[13] = target: 5-hydroxytryptamine receptor 1D (Homo sapiens) (UniProt P28221); settings: Compound concentration 10.0 uM
Sequence of 5-hydroxytryptamine receptor 1D (Homo sapiens) (P28221 whole entry): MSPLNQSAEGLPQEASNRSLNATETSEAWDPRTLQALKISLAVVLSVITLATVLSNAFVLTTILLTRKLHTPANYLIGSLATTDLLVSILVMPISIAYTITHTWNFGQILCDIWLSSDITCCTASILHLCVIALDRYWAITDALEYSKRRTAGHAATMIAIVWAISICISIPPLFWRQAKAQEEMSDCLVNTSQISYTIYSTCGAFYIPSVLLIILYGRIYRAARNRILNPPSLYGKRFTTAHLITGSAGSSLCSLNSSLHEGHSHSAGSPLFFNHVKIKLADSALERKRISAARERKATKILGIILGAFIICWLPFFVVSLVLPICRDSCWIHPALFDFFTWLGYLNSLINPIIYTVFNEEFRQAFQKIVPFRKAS

[14] = target: Glucocorticoid receptor (Homo sapiens) (UniProt P04150); experiment: Inhibition of Glucocorticoid at 10.0 µM in the Eurofins Panlabs Safety Screen; settings: Compound concentration 10.0 uM
[15] = target: T3, Muscarinic acetylcholine receptor M4 (Homo sapiens) (UniProt P08173); experiment: Inhibition of Muscarinic M4 at 10.0 µM in the Eurofins Panlabs Safety Screen; settings: Compound concentration 10.0 uM
T3 sequence (whole entry): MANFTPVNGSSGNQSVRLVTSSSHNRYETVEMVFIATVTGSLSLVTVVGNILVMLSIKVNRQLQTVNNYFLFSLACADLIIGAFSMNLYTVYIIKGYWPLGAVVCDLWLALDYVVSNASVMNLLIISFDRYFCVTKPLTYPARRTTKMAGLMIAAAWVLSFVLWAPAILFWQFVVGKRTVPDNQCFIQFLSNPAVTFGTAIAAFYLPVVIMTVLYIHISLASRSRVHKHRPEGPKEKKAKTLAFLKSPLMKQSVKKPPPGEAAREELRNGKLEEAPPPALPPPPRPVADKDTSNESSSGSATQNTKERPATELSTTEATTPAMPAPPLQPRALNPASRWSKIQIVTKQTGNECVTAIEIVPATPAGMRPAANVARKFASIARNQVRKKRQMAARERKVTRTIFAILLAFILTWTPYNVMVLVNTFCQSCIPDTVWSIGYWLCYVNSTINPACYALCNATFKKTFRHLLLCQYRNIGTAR

[16] = target: Endothelin-1 receptor (Homo sapiens) (UniProt P25101); experiment: Inhibition of Endothelin ETA at 10.0 µM in the Eurofins Panlabs Safety Screen; settings: Compound concentration 10.0 uM
[17] = target: Tyrosine-protein kinase SYK (Homo sapiens) (UniProt P43405); experiment: Inhibition of Syk(h) at 10.0 µM in the Eurofins Kinase panel; settings: Compound concentration 10.0 uM
[18] = target: Histamine H2 receptor (Homo sapiens) (UniProt P25021); experiment: Inhibition of Histamine H2 at 10.0 µM in the Eurofins Panlabs Safety Screen; settings: Compound concentration 10.0 uM
D(3) dopamine receptor = D(3) dopamine receptor (Homo sapiens, UniProt P35462); settings: Compound concentration 10.0 uM
Sequence of D(3) dopamine receptor (P35462 whole entry): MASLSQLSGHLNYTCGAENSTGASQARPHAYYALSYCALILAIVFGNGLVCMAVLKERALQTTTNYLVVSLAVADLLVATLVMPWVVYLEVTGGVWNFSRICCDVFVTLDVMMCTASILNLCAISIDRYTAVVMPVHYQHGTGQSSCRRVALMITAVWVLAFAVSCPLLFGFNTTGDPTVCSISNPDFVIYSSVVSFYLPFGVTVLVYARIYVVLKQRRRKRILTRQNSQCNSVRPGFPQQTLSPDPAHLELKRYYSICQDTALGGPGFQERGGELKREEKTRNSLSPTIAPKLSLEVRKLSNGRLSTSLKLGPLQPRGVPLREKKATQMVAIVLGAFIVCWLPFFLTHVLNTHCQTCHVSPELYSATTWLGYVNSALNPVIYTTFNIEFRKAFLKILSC

[19] = target: Sodium-dependent serotonin transporter (Homo sapiens) (UniProt P31645); settings: Compound concentration 10.0 uM
[20] = target: GABA-A receptor; anion channel (Rattus norvegicus) (UniProt O09028+P15431+P18506+P18508+P19969+P20236+P23574+P23576+P28471+P28473+P30191+P62813+P63079+P63138+Q91ZM7+Q9ES14); experiment: Inhibition of GABAA, Flunitrazepam, Central at 10.0 µM in the Eurofins Panlabs Safety Screen; format: protein-complex assay; settings: Compound concentration 10.0 uM
[21] = target: Muscarinic acetylcholine receptor M5 (Homo sapiens) (UniProt P08912); settings: Compound concentration 10.0 uM
Sequence of Muscarinic acetylcholine receptor M5 (Homo sapiens) (P08912 whole entry): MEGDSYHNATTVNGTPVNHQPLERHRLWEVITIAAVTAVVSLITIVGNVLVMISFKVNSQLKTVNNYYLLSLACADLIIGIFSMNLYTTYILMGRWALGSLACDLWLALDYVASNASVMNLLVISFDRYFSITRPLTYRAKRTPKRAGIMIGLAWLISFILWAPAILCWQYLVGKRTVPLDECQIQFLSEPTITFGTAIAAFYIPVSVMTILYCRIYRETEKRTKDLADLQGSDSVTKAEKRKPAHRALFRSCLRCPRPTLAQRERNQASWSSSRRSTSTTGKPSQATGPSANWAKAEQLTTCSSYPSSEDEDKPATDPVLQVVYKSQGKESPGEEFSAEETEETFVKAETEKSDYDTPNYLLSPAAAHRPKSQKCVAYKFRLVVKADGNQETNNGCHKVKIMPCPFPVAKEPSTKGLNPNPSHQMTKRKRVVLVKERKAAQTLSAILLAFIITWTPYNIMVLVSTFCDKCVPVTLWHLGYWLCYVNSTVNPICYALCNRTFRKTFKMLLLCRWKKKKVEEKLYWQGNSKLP

[22] = target: Delta-type opioid receptor (Homo sapiens) (UniProt P41143); settings: Compound concentration 10.0 uM
Sequence of Delta-type opioid receptor (Homo sapiens) (P41143 whole entry): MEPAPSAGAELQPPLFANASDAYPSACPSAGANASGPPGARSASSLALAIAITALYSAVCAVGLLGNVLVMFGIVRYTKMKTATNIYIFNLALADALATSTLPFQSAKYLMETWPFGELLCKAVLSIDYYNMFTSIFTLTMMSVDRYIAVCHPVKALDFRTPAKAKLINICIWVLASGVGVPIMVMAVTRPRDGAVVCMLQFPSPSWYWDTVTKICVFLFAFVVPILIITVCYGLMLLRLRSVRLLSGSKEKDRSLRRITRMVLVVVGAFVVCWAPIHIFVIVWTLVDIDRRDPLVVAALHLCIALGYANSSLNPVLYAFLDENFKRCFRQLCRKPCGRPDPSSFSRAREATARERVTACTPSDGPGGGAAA

[23] = target: D(1B) dopamine receptor (Homo sapiens) (UniProt P21918); settings: Compound concentration 10.0 uM
Sequence of D(1B) dopamine receptor (Homo sapiens) (P21918 whole entry): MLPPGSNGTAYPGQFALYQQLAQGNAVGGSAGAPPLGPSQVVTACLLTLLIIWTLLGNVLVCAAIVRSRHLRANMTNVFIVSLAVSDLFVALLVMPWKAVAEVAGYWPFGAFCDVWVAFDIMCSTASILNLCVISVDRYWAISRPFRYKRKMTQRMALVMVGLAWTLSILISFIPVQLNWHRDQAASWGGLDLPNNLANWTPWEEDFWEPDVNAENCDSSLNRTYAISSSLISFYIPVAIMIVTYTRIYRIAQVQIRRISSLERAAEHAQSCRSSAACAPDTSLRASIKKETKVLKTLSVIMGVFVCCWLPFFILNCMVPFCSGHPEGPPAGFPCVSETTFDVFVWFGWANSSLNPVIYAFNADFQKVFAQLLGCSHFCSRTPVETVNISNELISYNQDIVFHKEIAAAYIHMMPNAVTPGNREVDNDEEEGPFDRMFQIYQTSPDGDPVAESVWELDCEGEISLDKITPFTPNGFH

[24] = target: Alpha-1A adrenergic receptor (Homo sapiens) (UniProt P35348); settings: Compound concentration 10.0 uM
Sequence of Alpha-1A adrenergic receptor (Homo sapiens) (P35348 whole entry): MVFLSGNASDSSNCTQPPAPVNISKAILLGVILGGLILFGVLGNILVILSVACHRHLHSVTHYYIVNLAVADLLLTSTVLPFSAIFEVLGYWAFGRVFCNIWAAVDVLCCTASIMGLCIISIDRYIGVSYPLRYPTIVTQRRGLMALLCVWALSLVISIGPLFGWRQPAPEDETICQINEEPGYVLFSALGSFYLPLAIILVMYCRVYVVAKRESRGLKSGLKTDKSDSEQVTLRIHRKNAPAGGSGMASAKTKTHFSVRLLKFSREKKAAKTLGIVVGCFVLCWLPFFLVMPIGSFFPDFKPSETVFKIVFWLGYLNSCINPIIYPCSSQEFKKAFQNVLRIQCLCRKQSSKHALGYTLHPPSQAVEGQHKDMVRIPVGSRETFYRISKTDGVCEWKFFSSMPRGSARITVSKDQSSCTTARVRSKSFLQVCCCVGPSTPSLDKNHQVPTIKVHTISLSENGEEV

[25] = target: Tyrosine-protein kinase HCK (Homo sapiens) (UniProt P08631); experiment: Inhibition of Hck(h) at 10.0 µM in the Eurofins Kinase panel; settings: Compound concentration 10.0 uM
[26] = target: T1, Sodium-dependent dopamine transporter; experiment: GPCRScan assay: inhibition of DAT; design: radioligand conc. used [nm] 3.6 – 16.0, parental cells stable HEK

Sequence of Sodium-dependent serotonin transporter (Homo sapiens) (P31645 whole entry, looked up): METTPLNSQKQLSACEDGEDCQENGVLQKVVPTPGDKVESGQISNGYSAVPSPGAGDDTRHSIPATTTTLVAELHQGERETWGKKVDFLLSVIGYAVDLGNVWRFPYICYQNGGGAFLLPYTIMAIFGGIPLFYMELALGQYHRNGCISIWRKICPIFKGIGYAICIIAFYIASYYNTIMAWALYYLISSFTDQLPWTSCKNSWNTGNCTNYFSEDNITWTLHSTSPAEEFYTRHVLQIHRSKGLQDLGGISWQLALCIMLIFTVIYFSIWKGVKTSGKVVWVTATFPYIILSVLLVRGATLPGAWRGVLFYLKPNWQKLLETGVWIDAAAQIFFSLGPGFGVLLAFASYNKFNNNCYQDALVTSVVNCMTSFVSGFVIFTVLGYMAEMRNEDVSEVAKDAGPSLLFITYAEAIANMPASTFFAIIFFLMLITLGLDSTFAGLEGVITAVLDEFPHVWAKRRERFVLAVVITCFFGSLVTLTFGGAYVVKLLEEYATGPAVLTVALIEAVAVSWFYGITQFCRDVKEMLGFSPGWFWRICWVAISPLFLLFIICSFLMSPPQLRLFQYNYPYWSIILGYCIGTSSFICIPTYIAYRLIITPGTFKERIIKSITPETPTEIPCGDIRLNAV

Row | SMILES | inhibition [1] | inhibition [2] | inhibition [3] | inhibition [4] | inhibition [5] | inhibition [6] | inhibition [7] | inhibition [8] | inhibition [9] | inhibition [10] | inhibition [11] | inhibition [12] | inhibition [13] | inhibition [14] | inhibition [15] | inhibition [16] | inhibition [17] | inhibition [18] | inhibition (D(3) dopamine receptor) | inhibition [19] | other results
1 | O=C1NCCCC1N1Cc2cc(C3CCN(C(=O)CCCCCN4CCC(c5ccc(Oc6nn7cnnc7c7c6CCCC7)cc5)CC4)CC3)ccc2C1=O (stereo unspecified) | 22% | 7% | 12% | 2% | 19% | -3% | 39% | 22% | 29% | 12% | 62% | 14.2% | 37.4% | 20% | 57% | 3% | 20.4% | 36% | 68.3% | 9.58% | inhibition [20]: 15%; inhibition [21]: 41.8%; inhibition [22]: 19.5%; inhibition [23]: 10.8%; inhibition [24]: -1.93%; inhibition [25]: 17.9%; Ki ([26]; read-out: Ki): 4.81 µM; Ki ([26]; read-out: pKi (converted)): 4.47 µM
2 | O=C1CCC(N2Cc3cc(C4CCN(C(=O)CCCCCN5CCC(c6ccc(Oc7nn8cnnc8c8c7CCCC8)cc6)CC5)CC4)ccc3C2=O)C(=O)N1 (stereo unspecified) | 32% | 1% | 4% | -4% | 24% | 0% | 38% | 23% | 26% | 14% | 79% | 10.3% | 48.5% | 13% | 70% | -1% | 25% | 32% | 25.6% | 45.8% | inhibition [20]: 10%; inhibition [21]: 71%; inhibition [22]: 17.5%; inhibition [23]: 1.6%; inhibition [24]: 12.2%; inhibition [25]: 12.8%; Ki ([26]; read-out: Ki): 3.73 µM; Ki ([26]; read-out: pKi (converted)): 3.39 µM
